Reference: patent US20230149562A1 (priority 2020, published 2023)

How the values were obtained:
[1] = system: 293T cells; experiment: In vitro SEAP expression via QuantiBlue assay, DNA nanoparticles; format: cell-based; settings: 24 hours post-treatment
Protocol: To test the ability of these nanoparticles to express SEAP in vitro, 293T cells were treated with nanoparticles. Each well of a 96 well dish of 293 Ts was treated with 10 μL (approximately 0.25 μg) of each formulation product diluted into a final volume of 200 μL with a 1:1 Optimem:PBS mix. The nontreated wells had 200 μL of 50/50 PBS/OptiMEM. Twenty four hours post-treatment or transfection, conditioned media from each culture was collected. Media was analyzed using the QuantiBlue assay (InvivoGen). 180 μL QuantiBlue reagent was combined with 50 μL of media from wells. Readings were taken after 40 minutes by measuring absorbance at 650 nm as directed by the manufacturer's protocol. For the no treatment Negative Control, 50 μL of media from a well not treated with nanoparticles was added to 180 μL QuantiBlue Reagent. These samples were treated the same way as all other samples in all steps of the assay.
FIG. 11 illustrates in vitro SEAP expression of nanoparticle formulations with modified dendrimers used to treat 293T cells.

[2] = system: Influenza A virus (PR/8/34); experiment: Hemagglutinin Inhibition Assay (HAI) on vaccinated animal sera
Protocol: HAI tests were performed on vaccinated animal sera according to the standard recommended WHO protocol [World Health Organization. […] Sera were treated with receptor destroying enzyme (Denka Seiken Co. Ltd, Tokyo, Japan) at 37° C. overnight then heat inactivated for 30 minutes at 56° C. After cooling down to RT, those serum samples were mixed with 2 volume of 25% suspension of turkey red blood cells (RBC, Rockland Immunochemicals) and incubated at room temperature for 2 hours followed by centrifugation to remove RBC. The treated sera, now considered to be at a 1:10 dilution, were serially diluted and incubated with 4 HA units of inactivated Influenza A virus (PR/8/34, Virusys #IAV210) for 30 minutes at room temperature. An equal volume of 0.5% turkey RBC was added to each well and incubated for 30 minutes at room temperature.

Structure (SMILES): CCCCCCCCCCCCCCCCC(=O)NCCCN(C)CCCNC(=O)OCC(C)(COC(=O)NCCCN(C)CCCNC(=O)CCCCCCCCCCCCCCCC)C(=O)OCC(CC)(COC(=O)C(C)(COC(=O)NCCCN(C)CCCNC(=O)CCCCCCCCCCCCCCCC)COC(=O)NCCCN(C)CCCNC(=O)CCCCCCCCCCCCCCCC)COC(=O)C(C)(COC(=O)NCCCN(C)CCCNC(=O)CCCCCCCCCCCCCCCC)COC(=O)NCCCN(C)CCCNC(=O)CCCCCCCCCCCCCCCC [PE-Heptadecanoic]
- in vitro SEAP expression [1]: resulted in SEAP expression

Structure (SMILES): CCCCCCCC/C=C\CCCCCCCC(=O)NCCCN(C)CCCNC(=O)OCC(C)(COC(=O)NCCCN(C)CCCNC(=O)CCCCCCC/C=C\CCCCCCCC)C(=O)OCC(CC)(COC(=O)C(C)(COC(=O)NCCCN(C)CCCNC(=O)CCCCCCC/C=C\CCCCCCCC)COC(=O)NCCCN(C)CCCNC(=O)CCCCCCC/C=C\CCCCCCCC)COC(=O)C(C)(COC(=O)NCCCN(C)CCCNC(=O)CCCCCCC/C=C\CCCCCCCC)COC(=O)NCCCN(C)CCCNC(=O)CCCCCCC/C=C\CCCCCCCC [PE-Oleic]
- average HI titer ([2]; week 4, after prime vaccination, 5 μg nanoparticle vaccine, HA mRNA): 40
- average HI titer ([2]; week 5, one week after boost immunization, 5 μg): 192
- in vitro SEAP expression [1]: resulted in SEAP expression
